What was measured:
R6/2 transgenic mice = test: Therapeutic effect in R6/2 transgenic mice (function, blood sugar, lifespan); type: in vivo, mouse
Source text: FIG. 6. 8R10Q ameliorated functional deterioration of R6/2 transgenic mice. Panel A: Longitudinal rotarod performance of wild type (WT) and R6/2 mice treated with PBS or 8R10Q peptide. Note the significant delay in motor deterioration of R6/2 mice treated with 8R10Q from 11 weeks of age. Panel B: T maze test of WT and R6/2 mice at 13 weeks of age. […] Panel C: The curves of blood sugar in serum of WT and R6/2 mice treated as indicated. […] Panel D: Lifespan of WT and R6/2 mice treated with PBS vs. 8R10Q. 100% of R6/2 mice died before 16 weeks of age. […] WT mice N=6/group; R6/2 mice N=10/group; statistical analysis performed with two way ANOVA (panels A and C), one way ANOVA (panel B), *p<0.05; **p<0.01; ***p<0.001, ns: not significant, and log-rank (Mantel-Cox) Test (D), ***p<0.0001.
To test the therapeutic effect of the peptide in vivo, the 8R10Q peptide was delivered 6 days/week into the wild type (WT) or R6/2 transgenic mice through intranasal aspiration or continuously with the Alzet osmotic minipumps into the neostriatum. […] In fact, the 8R10Q-treated R6/2 mice performed even better than the 11 week-old PBS-treated mice on average. […] The R6/2 mice were previously reported to have diabetes. Bjorkqvist et al., Hum Mol Genet (2005) 14:565-74; and Hunt et al., Experimental Brain Res (2005) 166:220-9. […] To sum up, the 8R10Q peptide effectively delayed the onset of disease and ameliorated the pathological phenotypes.

109QmHtt aggregates = test: TIRF microscopy of mHtt aggregates in Neuro2a cells; type: cell-based; settings: Neuro2a cells expressing 109QmHtt
Experimental: FIG. 3. Diagrams showing the co-localization of tested bipartite peptides with the 109QmHtt aggregates. Panel A: Structure of TAMRA-labeled 8R10Q used in this study. Panel B: Epifluorescence micrographs of Neuro2a cells expressing 109QmHtt treated with TAMRA-8R10Q (8R10Q) at various time points. Note the co-localization of 8R10Q and 109QmHttGFP aggregates (GFP) from 8-24 hours (arrows). Scale bar: 10 μm. Panel C: TIRF micrographs of the Neuro2a expressing 109QmHtt treated with water or peptides as indicated at various time points. Note the decrease in aggregate size in 8R10Q and 8R15Q-treated cells. Panel D: Quantitation of the size of individual aggregates in Neuro2a at 8 hours (left) and 24 hours (right) after peptide treatment. […] Panel E: Quantitation of the number of aggregates in 20 Neuro2a cells at 12 hours (left) and 24 hours (right) after peptide treatment. Both the 8R10Q and 8R15Q increased the number of aggregates. Statistics performed with one way ANOVA. **p<0.01; ***p<0.001.
To probe into the details of the effect of peptide on the mHtt aggregates, the parameters of the mHtt aggregates were visualized and measured using the Total Internal Reflection Fluorescence (TIRF) microscopy. […] The number of aggregates in 20 cells was also calculated. 8R10Q and 8R15Q increased the number of the aggregates by 4-5 fold (FIG. 3, panel E).

For “H-RRRRRRRRWDQQQQQQQQQQ-NH2 [Peptide 8R10Q, NH2-(R)8-W-D-(Q)10-CONH2]”, the “T maze test memory” value (R6/2 transgenic mice; 13 week-old R6/2 mice, intranasal) was “corrected the memory deficit”, the “rotarod therapeutic effect, intracerebral delivery” value (R6/2 transgenic mice; Alzet osmotic minipumps into the neostriatum) was “very similar therapeutic effect to that given intranasally” and the “diabetic phenotype, inflammatory index and abnormal liver function” value (R6/2 transgenic mice; R6/2 mice) was “decreased”. For the same substance, the diabetes phenotype (R6/2 transgenic mice; R6/2 mice, intracerebral) was “significantly corrected the diabetes phenotype”, the blood sugar (R6/2 transgenic mice; R6/2 mice, intranasal) was “delayed the rise and decreased the level of blood sugar” and the “prevention of premature death” value (R6/2 transgenic mice; R6/2 mice, intranasal, at 16 weeks of age) was 41%. The “age until which motor deterioration (rotarod) was delayed” value (R6/2 transgenic mice; R6/2 mice, intranasal, deterioration significant from 11 weeks with PBS) was 13 weeks, the body weights (R6/2 transgenic mice; WT or R6/2 mice, intranasal or intracerebral route) was “remained comparable to those treated with PBS” and the “average size of the aggregates” value (109QmHtt aggregates) was 0.3 μm^2.
